Measured values reported in ChEMBL document CHEMBL3352643, “Synthesis and antiproliferative activity of 6-phenylaminopurines” (Eur J Med Chem, 2014).

Test system: not listed separately
Assay: Antiproliferative activity against BAEC assessed as inhibition of cell proliferation after 3 days by Coulter counter based cell counting method
Assay type: functional
Conditions: Bos taurus, 72 h

Compound | IC50 [µM]
COc1ccc(N(C)c2ncnc3c2nc(C)n3C)cc1 | ≥ 100
COc1ccc(Nc2nc(C)nc3c2nc(C)n3C)cc1 | ≥ 100
Cc1nc(N(C)c2ccc(OC(F)(F)F)cc2)c2nc(C)n(C)c2n1 | > 100
Cc1ccc(N(C)c2nc(C)nc3c2nc(C)n3C)cc1 | > 100
COc1ccc(N(C)c2nc(C)nc3c2ncn3C)cc1 | 9.3
COc1cc2c(c(OC)c1OC)-c1ccc(OC)c(=O)cc1[C@@H](NC(C)=O)CC2 [COLCHICINE] | 0.0069
COc1ccc(N(C)c2nc(C)nc3[nH]c(C)nc23)cc1 | 8.9
COc1ccc2c(c1)CCCN2c1nc(C)nc2c1nc(C)n2C | 2.4
COc1cccc(N(C)c2nc(C)nc3c2nc(C)n3C)c1 | ≥ 100
CCN(c1ccc(OC)cc1)c1nc(C)nc2c1nc(C)n2C | 11
COc1ccc(N(C)c2nc(C)nc3c2nc(C)n3C)cc1 | 7.4

Test system: HeLa
Assay: Induction of cell cycle arrest in human HeLa cells assessed as accumulation at subG1 phase at 100 uM after 24 hrs by propidium iodide staining based flow cytometry (reference value: 1%)
Assay type: functional
Conditions: not given

Compound | Activity [%]
COc1ccc(N(C)c2nc(C)nc3[nH]c(C)nc23)cc1 | 11
COc1ccc2c(c1)CCCN2c1nc(C)nc2c1nc(C)n2C | 8
CCN(c1ccc(OC)cc1)c1nc(C)nc2c1nc(C)n2C | 36
COc1ccc(N(C)c2nc(C)nc3c2nc(C)n3C)cc1 | 14

Test system: HeLa
Assay: Induction of cell cycle arrest in human HeLa cells assessed as accumulation at S phase at 4 uM after 24 hrs by propidium iodide staining based flow cytometry (reference value: 24%)
Assay type: functional
Conditions: not given

Compound | Activity [%]
COc1ccc2c(c1)CCCN2c1nc(C)nc2c1nc(C)n2C | 18

Test system: HeLa
Assay: Induction of cell cycle arrest in human HeLa cells assessed as accumulation at G2/M phase at 100 uM after 24 hrs by propidium iodide staining based flow cytometry (reference value: 31%)
Assay type: functional
Conditions: not given

Compound | Activity [%]
COc1ccc(N(C)c2nc(C)nc3[nH]c(C)nc23)cc1 | 68
COc1ccc2c(c1)CCCN2c1nc(C)nc2c1nc(C)n2C | 79
CCN(c1ccc(OC)cc1)c1nc(C)nc2c1nc(C)n2C | 34
COc1ccc(N(C)c2nc(C)nc3c2nc(C)n3C)cc1 | 63

Test system: L1210
Assay: Antiproliferative activity against mouse L1210 assessed as inhibition of cell proliferation after 48 hrs by Coulter counter based cell counting method
Assay type: functional
Conditions: L1210, 48 h

Compound | IC50 [µM]
COc1cc2c(c(OC)c1OC)-c1ccc(OC)c(=O)cc1[C@@H](NC(C)=O)CC2 [COLCHICINE] | 0.014

Same assay, conditions: L1210, 48 h, read-out: IC50

Compound | IC50 [µM]
COc1ccc(N(C)c2ncnc3c2nc(C)n3C)cc1 | > 250
COc1ccc(Nc2nc(C)nc3c2nc(C)n3C)cc1 | ≥ 250
Cc1nc(N(C)c2ccc(OC(F)(F)F)cc2)c2nc(C)n(C)c2n1 | > 250
Cc1ccc(N(C)c2nc(C)nc3c2nc(C)n3C)cc1 | ≥ 250
COc1ccc(N(C)c2nc(C)nc3c2ncn3C)cc1 | 30
COc1ccc(N(C)c2nc(C)nc3[nH]c(C)nc23)cc1 | 229
COc1ccc2c(c1)CCCN2c1nc(C)nc2c1nc(C)n2C | 5.1
COc1cccc(N(C)c2nc(C)nc3c2nc(C)n3C)c1 | > 250
CCN(c1ccc(OC)cc1)c1nc(C)nc2c1nc(C)n2C | 35
COc1ccc(N(C)c2nc(C)nc3c2nc(C)n3C)cc1 | 19

Test system: HeLa
Assay: Induction of cell cycle arrest in human HeLa cells assessed as accumulation at S phase at 0.1 uM after 24 hrs by propidium iodide staining based flow cytometry (reference value: 24%)
Assay type: functional
Conditions: not given

Compound | Activity [%]
COc1cc2c(c(OC)c1OC)-c1ccc(OC)c(=O)cc1[C@@H](NC(C)=O)CC2 [COLCHICINE] | 10

Test system: HeLa
Assay: Induction of cell cycle arrest in human HeLa cells assessed as accumulation at G1 phase at 100 uM after 24 hrs by propidium iodide staining based flow cytometry (reference value: 45%)
Assay type: functional
Conditions: not given

Compound | Activity [%]
COc1ccc(N(C)c2nc(C)nc3[nH]c(C)nc23)cc1 | 6
COc1ccc2c(c1)CCCN2c1nc(C)nc2c1nc(C)n2C | 3
CCN(c1ccc(OC)cc1)c1nc(C)nc2c1nc(C)n2C | 12
COc1ccc(N(C)c2nc(C)nc3c2nc(C)n3C)cc1 | 8

Test system: not listed separately
Assay: Antiproliferative activity against mouse MBEC assessed as inhibition of cell proliferation after 3 days by Coulter counter based cell counting method
Assay type: functional
Conditions: 72 h

Compound | IC50 [µM]
COc1ccc(N(C)c2ncnc3c2nc(C)n3C)cc1 | ≥ 100
COc1ccc(Nc2nc(C)nc3c2nc(C)n3C)cc1 | ≥ 100
Cc1nc(N(C)c2ccc(OC(F)(F)F)cc2)c2nc(C)n(C)c2n1 | > 100
Cc1ccc(N(C)c2nc(C)nc3c2nc(C)n3C)cc1 | > 100
COc1ccc(N(C)c2nc(C)nc3c2ncn3C)cc1 | 15
COc1cc2c(c(OC)c1OC)-c1ccc(OC)c(=O)cc1[C@@H](NC(C)=O)CC2 [COLCHICINE] | 0.031
COc1ccc(N(C)c2nc(C)nc3[nH]c(C)nc23)cc1 | 8.9
COc1ccc2c(c1)CCCN2c1nc(C)nc2c1nc(C)n2C | 4.4
COc1cccc(N(C)c2nc(C)nc3c2nc(C)n3C)c1 | ≥ 100
CCN(c1ccc(OC)cc1)c1nc(C)nc2c1nc(C)n2C | 15
COc1ccc(N(C)c2nc(C)nc3c2nc(C)n3C)cc1 | 8.7

Test system: CCRF-CEM
Assay: Antiproliferative activity against human CEM cells assessed as inhibition of cell proliferation after 96 hrs by Coulter counter based cell counting method
Assay type: functional
Conditions: not given

Compound | IC50 [µM]
COc1ccc(N(C)c2ncnc3c2nc(C)n3C)cc1 | > 250
COc1ccc(Nc2nc(C)nc3c2nc(C)n3C)cc1 | > 250
Cc1nc(N(C)c2ccc(OC(F)(F)F)cc2)c2nc(C)n(C)c2n1 | 132
Cc1ccc(N(C)c2nc(C)nc3c2nc(C)n3C)cc1 | 164
COc1ccc(N(C)c2nc(C)nc3c2ncn3C)cc1 | 21
COc1cc2c(c(OC)c1OC)-c1ccc(OC)c(=O)cc1[C@@H](NC(C)=O)CC2 [COLCHICINE] | 0.031
COc1ccc(N(C)c2nc(C)nc3[nH]c(C)nc23)cc1 | 23
COc1ccc2c(c1)CCCN2c1nc(C)nc2c1nc(C)n2C | 3.5
COc1cccc(N(C)c2nc(C)nc3c2nc(C)n3C)c1 | > 250
CCN(c1ccc(OC)cc1)c1nc(C)nc2c1nc(C)n2C | 16
COc1ccc(N(C)c2nc(C)nc3c2nc(C)n3C)cc1 | 6.2

Test system: HeLa
Assay: Induction of cell cycle arrest in human HeLa cells assessed as accumulation at G1 phase at 20 uM after 24 hrs by propidium iodide staining based flow cytometry (reference value: 45%)
Assay type: functional
Conditions: not given

Compound | Activity [%]
COc1ccc(N(C)c2nc(C)nc3[nH]c(C)nc23)cc1 | 39
COc1ccc2c(c1)CCCN2c1nc(C)nc2c1nc(C)n2C | 3
CCN(c1ccc(OC)cc1)c1nc(C)nc2c1nc(C)n2C | 39
COc1ccc(N(C)c2nc(C)nc3c2nc(C)n3C)cc1 | 18

Test system: HeLa
Assay: Induction of cell cycle arrest in human HeLa cells assessed as accumulation at G2/M phase at 0.1 uM after 24 hrs by propidium iodide staining based flow cytometry (reference value: 31%)
Assay type: functional
Conditions: not given

Compound | Activity [%]
COc1cc2c(c(OC)c1OC)-c1ccc(OC)c(=O)cc1[C@@H](NC(C)=O)CC2 [COLCHICINE] | 80

Test system: HeLa
Assay: Induction of cell cycle arrest in human HeLa cells assessed as accumulation at subG1 phase at 0.1 uM after 24 hrs by propidium iodide staining based flow cytometry (reference value: 1%)
Assay type: functional
Conditions: not given

Compound | Activity [%]
COc1cc2c(c(OC)c1OC)-c1ccc(OC)c(=O)cc1[C@@H](NC(C)=O)CC2 [COLCHICINE] | 6

Test system: HeLa
Assay: Induction of cell cycle arrest in human HeLa cells assessed as accumulation at S phase at 20 uM after 24 hrs by propidium iodide staining based flow cytometry (reference value: 24%)
Assay type: functional
Conditions: not given

Compound | Activity [%]
COc1ccc(N(C)c2nc(C)nc3[nH]c(C)nc23)cc1 | 27
COc1ccc2c(c1)CCCN2c1nc(C)nc2c1nc(C)n2C | 8
CCN(c1ccc(OC)cc1)c1nc(C)nc2c1nc(C)n2C | 27
COc1ccc(N(C)c2nc(C)nc3c2nc(C)n3C)cc1 | 29

Test system: not listed separately
Assay: Antiproliferative activity against human HMEC1 cells assessed as inhibition of cell proliferation after 4 days by Coulter counter based cell counting method
Assay type: functional
Conditions: HMEC-1, 96 h

Compound | IC50 [µM]
COc1ccc(N(C)c2ncnc3c2nc(C)n3C)cc1 | ≥ 100
COc1ccc(Nc2nc(C)nc3c2nc(C)n3C)cc1 | ≥ 100
Cc1nc(N(C)c2ccc(OC(F)(F)F)cc2)c2nc(C)n(C)c2n1 | > 100
Cc1ccc(N(C)c2nc(C)nc3c2nc(C)n3C)cc1 | > 100
COc1ccc(N(C)c2nc(C)nc3c2ncn3C)cc1 | 9.2
COc1ccc(N(C)c2nc(C)nc3[nH]c(C)nc23)cc1 | 7.1
COc1ccc2c(c1)CCCN2c1nc(C)nc2c1nc(C)n2C | 2.3
COc1cccc(N(C)c2nc(C)nc3c2nc(C)n3C)c1 | ≥ 100
CCN(c1ccc(OC)cc1)c1nc(C)nc2c1nc(C)n2C | 8.8
COc1ccc(N(C)c2nc(C)nc3c2nc(C)n3C)cc1 | 7.3

Test system: HeLa
Assay: Induction of cell cycle arrest in human HeLa cells assessed as accumulation at G1 phase at 4 uM after 24 hrs by propidium iodide staining based flow cytometry (reference value: 45%)
Assay type: functional
Conditions: not given

Compound | Activity [%]
COc1ccc2c(c1)CCCN2c1nc(C)nc2c1nc(C)n2C | 35

Test system: HeLa
Assay: Antiproliferative activity against human HeLa cells assessed as inhibition of cell proliferation after 4 days by Coulter counter based cell counting method
Assay type: functional
Conditions: 96 h

Compound | IC50 [µM]
COc1ccc(N(C)c2ncnc3c2nc(C)n3C)cc1 | > 250
COc1ccc(Nc2nc(C)nc3c2nc(C)n3C)cc1 | 197
Cc1nc(N(C)c2ccc(OC(F)(F)F)cc2)c2nc(C)n(C)c2n1 | 188
Cc1ccc(N(C)c2nc(C)nc3c2nc(C)n3C)cc1 | ≥ 250
COc1ccc(N(C)c2nc(C)nc3c2ncn3C)cc1 | 22
COc1ccc(N(C)c2nc(C)nc3[nH]c(C)nc23)cc1 | 14
COc1ccc2c(c1)CCCN2c1nc(C)nc2c1nc(C)n2C | 4.4
COc1cccc(N(C)c2nc(C)nc3c2nc(C)n3C)c1 | > 250
CCN(c1ccc(OC)cc1)c1nc(C)nc2c1nc(C)n2C | 20
COc1ccc(N(C)c2nc(C)nc3c2nc(C)n3C)cc1 | 4.5

Test system: HeLa
Assay: Induction of cell cycle arrest in human HeLa cells assessed as accumulation at G2/M phase at 20 uM after 24 hrs by propidium iodide staining based flow cytometry (reference value: 31%)
Assay type: functional
Conditions: not given

Compound | Activity [%]
COc1ccc(N(C)c2nc(C)nc3[nH]c(C)nc23)cc1 | 31
COc1ccc2c(c1)CCCN2c1nc(C)nc2c1nc(C)n2C | 80
CCN(c1ccc(OC)cc1)c1nc(C)nc2c1nc(C)n2C | 28
COc1ccc(N(C)c2nc(C)nc3c2nc(C)n3C)cc1 | 25

Test system: HeLa
Assay: Induction of cell cycle arrest in human HeLa cells assessed as accumulation at subG1 phase at 20 uM after 24 hrs by propidium iodide staining based flow cytometry (reference value: 1%)
Assay type: functional
Conditions: not given

Compound | Activity [%]
COc1ccc(N(C)c2nc(C)nc3[nH]c(C)nc23)cc1 | 5
COc1ccc2c(c1)CCCN2c1nc(C)nc2c1nc(C)n2C | 7
CCN(c1ccc(OC)cc1)c1nc(C)nc2c1nc(C)n2C | 6
COc1ccc(N(C)c2nc(C)nc3c2nc(C)n3C)cc1 | 39

Test system: HeLa
Assay: Induction of cell cycle arrest in human HeLa cells assessed as accumulation at S phase at 100 uM after 24 hrs by propidium iodide staining based flow cytometry (reference value: 24%)
Assay type: functional
Conditions: not given

Compound | Activity [%]
COc1ccc(N(C)c2nc(C)nc3[nH]c(C)nc23)cc1 | 15
COc1ccc2c(c1)CCCN2c1nc(C)nc2c1nc(C)n2C | 8
CCN(c1ccc(OC)cc1)c1nc(C)nc2c1nc(C)n2C | 18
COc1ccc(N(C)c2nc(C)nc3c2nc(C)n3C)cc1 | 15

Test system: HeLa
Assay: Induction of cell cycle arrest in human HeLa cells assessed as accumulation at G1 phase at 0.1 uM after 24 hrs by propidium iodide staining based flow cytometry (reference value: 45%)
Assay type: functional
Conditions: not given

Compound | Activity [%]
COc1cc2c(c(OC)c1OC)-c1ccc(OC)c(=O)cc1[C@@H](NC(C)=O)CC2 [COLCHICINE] | 5

Test system: HeLa
Assay: Induction of cell cycle arrest in human HeLa cells assessed as accumulation at G2/M phase at 4 uM after 24 hrs by propidium iodide staining based flow cytometry (reference value: 31%)
Assay type: functional
Conditions: not given

Compound | Activity [%]
COc1ccc2c(c1)CCCN2c1nc(C)nc2c1nc(C)n2C | 27

Test system: HeLa
Assay: Induction of cell cycle arrest in human HeLa cells assessed as accumulation at subG1 phase at 4 uM after 24 hrs by propidium iodide staining based flow cytometry (reference value: 1%)
Assay type: functional
Conditions: not given

Compound | Activity [%]
COc1ccc2c(c1)CCCN2c1nc(C)nc2c1nc(C)n2C | 20
